Laboratory results: PubChem BioAssay AID2060603 (Molecular Pharmacology Branch, DTP, NCI, 2025)
“And” between values parts separate entries of the source, which are not always exact repeats. Equal entries are not always repeated. Each block holds one compound with its values, some of them ahead of it.

System: 422866-222-R5-J1-PDC spheroid viability
Assay: Anticancer human tumor 422866-222-R5-J1-PDC patient-derived pancreatic adenocarcinoma cell line growth inhibition [CLK]
Details: spheroids with HUVEC and MSC; for viability, T/C: stronger effect = lower value
Summary of the method: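 Patient-derived tumor cells grown as complex spheroids with HUVEC endothelial cells and mesenchymal stem cells, treated with drug combinations. Concentrations descend in half-log steps from near clinical Cmax, or from 10 microM if Cmax unknown.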

[1] = curve of first compound, second compound 0.0316 µM
[2] = curve of first compound, second compound 0.1 µM
[3] = curve of first compound, second compound 0.316 µM
[4] = curve of first compound, second compound 1 µM
[5] = curve of first compound, second compound 3.16 µM
[6] = curve of first compound, second compound 10 µM
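Also: spheroids exposed to agents for seven days before readout.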

- IC50 [1]: < 3.16 nM
- IC50 [2]: < 3.16 nM
- IC50 [3]: < 3.16 nM
- IC50 [4]: < 3.16 nM
- IC50 [5]: < 3.16 nM
- IC50 [6]: < 3.16 nM
SMILES: CCc1c2c(nc3ccc(O)cc13)-c1cc3c(c(=O)n1C2)COC(=O)[C@]3(O)CC + CNC(=O)c1ccc(Nc2nc(OC3CCCC3)c3c(-c4ccc5nc(C)oc5c4)c[nH]c3n2)c(OC)c1
- viability, T/C (second compound 0.0316 µM, first compound 0.00316 µM): 45.6%
- viability, T/C (second compound 0.0316 µM, first compound 0.01 µM): 46.4%
- viability, T/C (second compound 0.0316 µM, first compound 0.0316 µM): 51%
- viability, T/C (second compound 0.0316 µM, first compound 0.1 µM): 46.5%
- viability, T/C (second compound 0.0316 µM, first compound 0.316 µM): 42.7%
- viability, T/C (second compound 0.0316 µM, first compound 1 µM): 16.4%
- viability, T/C (second compound 0.1 µM, first compound 0.00316 µM): 49.1%
- viability, T/C (second compound 0.1 µM, first compound 0.01 µM): 43.8%
- viability, T/C (second compound 0.1 µM, first compound 0.0316 µM): 40.2%
- viability, T/C (second compound 0.1 µM, first compound 0.1 µM): 38%
- viability, T/C (second compound 0.1 µM, first compound 0.316 µM): 40%
- viability, T/C (second compound 0.1 µM, first compound 1 µM): 19.6%
- viability, T/C (second compound 0.316 µM, first compound 0.00316 µM): 42.3%
- viability, T/C (second compound 0.316 µM, first compound 0.01 µM): 33.2%
- viability, T/C (second compound 0.316 µM, first compound 0.0316 µM): 30.9%
- viability, T/C (second compound 0.316 µM, first compound 0.1 µM): 38.5%
- viability, T/C (second compound 0.316 µM, first compound 0.316 µM): 27.6%
- viability, T/C (second compound 0.316 µM, first compound 1 µM): 24.5%
- viability, T/C (second compound 1 µM, first compound 0.00316 µM): 46.8%
- viability, T/C (second compound 1 µM, first compound 0.01 µM): 28.1%
- viability, T/C (second compound 1 µM, first compound 0.0316 µM): 38.2%
- viability, T/C (second compound 1 µM, first compound 0.1 µM): 42.4%
- viability, T/C (second compound 1 µM, first compound 0.316 µM): 20.8%
- viability, T/C (second compound 1 µM, first compound 1 µM): 25.8%
- viability, T/C (second compound 3.16 µM, first compound 0.00316 µM): 41.9%
- viability, T/C (second compound 3.16 µM, first compound 0.01 µM): 38.7%
- viability, T/C (second compound 3.16 µM, first compound 0.0316 µM): 33%
- viability, T/C (second compound 3.16 µM, first compound 0.1 µM): 39.8%
- viability, T/C (second compound 3.16 µM, first compound 0.316 µM): 22.6%
- viability, T/C (second compound 3.16 µM, first compound 1 µM): 23.3%
- viability, T/C (second compound 10 µM, first compound 0.00316 µM): 31.2%
- viability, T/C (second compound 10 µM, first compound 0.01 µM): 27.5%
- viability, T/C (second compound 10 µM, first compound 0.0316 µM): 38.4%
- viability, T/C (second compound 10 µM, first compound 0.1 µM): 32.7%
- viability, T/C (second compound 10 µM, first compound 0.316 µM): 23.7%
- viability, T/C (second compound 10 µM, first compound 1 µM): 28.7%

- IC50 (curve of compound): 221 nM and 79.5 nM
SMILES: Nc1ccn(C2OC(CO)C(O)C2(F)F)c(=O)n1 (stereo not drawn)
- viability, T/C (compound 0.0316 µM): 73.9% and 72.8%
- viability, T/C (compound 0.1 µM): 60.1% and 44.8%
- viability, T/C (compound 0.316 µM): 44.6% and 38%
- viability, T/C (compound 1 µM): 41.9% and 46.5%
- viability, T/C (compound 3.16 µM): 41.6% and 39.7%
- viability, T/C (compound 10 µM): 36.3% and 40.9%

- IC50 [1]: 5.65 nM
- IC50 [2]: 5.52 nM
- IC50 [3]: 4.54 nM
- IC50 [4]: 4.19 nM
- IC50 [5]: 4.29 nM
- IC50 [6]: 4.12 nM
SMILES: CC(C)CC(NC(=O)C(Cc1ccccc1)NC(=O)c1cnccn1)B(O)O (stereo not drawn) + CNC(=O)c1ccc(Nc2nc(OC3CCCC3)c3c(-c4ccc5nc(C)oc5c4)c[nH]c3n2)c(OC)c1
- viability, T/C (second compound 0.0316 µM, first compound 0.000949 µM): 94%
- viability, T/C (second compound 0.0316 µM, first compound 0.003 µM): 88.6%
- viability, T/C (second compound 0.0316 µM, first compound 0.00949 µM): 18.5%
- viability, T/C (second compound 0.0316 µM, first compound 0.03 µM): 2.14%
- viability, T/C (second compound 0.0316 µM, first compound 0.0949 µM): 0.75%
- viability, T/C (second compound 0.0316 µM, first compound 0.3 µM): 0.67%
- viability, T/C (second compound 0.1 µM, first compound 0.000949 µM): 115%
- viability, T/C (second compound 0.1 µM, first compound 0.003 µM): 90.8%
- viability, T/C (second compound 0.1 µM, first compound 0.00949 µM): 13.8%
- viability, T/C (second compound 0.1 µM, first compound 0.03 µM): 1.87%
- viability, T/C (second compound 0.1 µM, first compound 0.0949 µM): 1.7%
- viability, T/C (second compound 0.1 µM, first compound 0.3 µM): 1.33%
- viability, T/C (second compound 0.316 µM, first compound 0.000949 µM): 108%
- viability, T/C (second compound 0.316 µM, first compound 0.003 µM): 70.2%
- viability, T/C (second compound 0.316 µM, first compound 0.00949 µM): 13.9%
- viability, T/C (second compound 0.316 µM, first compound 0.03 µM): 1.54%
- viability, T/C (second compound 0.316 µM, first compound 0.0949 µM): 0.87%
- viability, T/C (second compound 0.316 µM, first compound 0.3 µM): 1.27%
- viability, T/C (second compound 1 µM, first compound 0.000949 µM): 96.5%
- viability, T/C (second compound 1 µM, first compound 0.003 µM): 67.8%
- viability, T/C (second compound 1 µM, first compound 0.00949 µM): 6.77%
- viability, T/C (second compound 1 µM, first compound 0.03 µM): 1.53%
- viability, T/C (second compound 1 µM, first compound 0.0949 µM): 3.06%
- viability, T/C (second compound 1 µM, first compound 0.3 µM): 2.68%
- viability, T/C (second compound 3.16 µM, first compound 0.000949 µM): 86.8%
- viability, T/C (second compound 3.16 µM, first compound 0.003 µM): 69.7%
- viability, T/C (second compound 3.16 µM, first compound 0.00949 µM): 6.4%
- viability, T/C (second compound 3.16 µM, first compound 0.03 µM): 1.59%
- viability, T/C (second compound 3.16 µM, first compound 0.0949 µM): 1.4%
- viability, T/C (second compound 3.16 µM, first compound 0.3 µM): 0.99%
- viability, T/C (second compound 10 µM, first compound 0.000949 µM): 84.8%
- viability, T/C (second compound 10 µM, first compound 0.003 µM): 66.5%
- viability, T/C (second compound 10 µM, first compound 0.00949 µM): 6.65%
- viability, T/C (second compound 10 µM, first compound 0.03 µM): 1.39%
- viability, T/C (second compound 10 µM, first compound 0.0949 µM): 1.44%
- viability, T/C (second compound 10 µM, first compound 0.3 µM): 1.32%

- IC50 (curve of compound): > 10000 nM and 7890 nM
SMILES: CC1COCCN1c1cc(C2(S(C)(=N)=O)CC2)nc(-c2ccnc3[nH]ccc23)n1 (stereo not drawn)
- viability, T/C (compound 0.0316 µM): 94.6% and 88.6%
- viability, T/C (compound 0.1 µM): 92.4% and 94.7%
- viability, T/C (compound 0.316 µM): 97.3% and 95.7%
- viability, T/C (compound 1 µM): 94.2% and 94.3%
- viability, T/C (compound 3.16 µM): 66.9% and 58.5%
- viability, T/C (compound 10 µM): 54.5% and 47.8%
